{"source": "patent US11723873B2", "about": "“Oral dosage form of ticagrelor and preparation method thereof” (Elite Pharmaceutical Solution Inc., priority 2021, dated 2023)", "origin": "cited, not measured here", "key": {"[1]": {"conditions": "in vivo"}, "[2]": {"conditions": "room temperature, crystalline powder"}}}
{"molecule": "CCCSc1nc(N[C@@H]2C[C@H]2c2ccc(F)c(F)c2)c2nnn([C@@H]3C[C@H](O)[C@@H](O)[C@H]3O)c2n1", "note": "[AR-C124910XX]", "values": [{"measurement": "Tmax range of formation of the major circulating metabolite", "setting": "[1]", "value": "1.5 to 5.0", "unit": "h"}, {"measurement": "median time (Tmax) of formation of the major circulating metabolite", "setting": "[1]", "value": "approximately 2.5 hours"}]}
{"molecule": "CCCSc1nc(N[C@@H]2C[C@H]2c2ccc(F)c(F)c2)c2nnn([C@@H]3C[C@H](OCCO)[C@@H](O)[C@H]3O)c2n1", "note": "[ticagrelor, (1S,2S,3R,5S)-3-[7-{[(1R,2S)-2-(3,4-difluorophenyl)cyclopropyl]amino}-5-(propylthio)-3H-[1,2,3]-triazolo[4,5-d]pyrimidin-3-yl]-5-(2-hydroxyethoxy)cyclopentane-1,2-diol]", "values": [{"measurement": "aqueous solubility", "setting": "[2]", "value": "approximately 10 μg/mL"}]}
